According to PubChem BioAssay AID248 (DTP/NCI, 2004):
Toxic doses and inconclusive results are not listed. Cut-off read from the data, not from the text of the source: active = T/C of 150% or more; inactive = T/C below 125%.

Test system: L1210 leukemia ip in BDF1 mice, survival T/C
Test: NCI In Vivo Anticancer Drug Screen. Data for tumor model L1210 Leukemia (intraperitoneal) in B6D2F1 (BDF1) mice
Settings: endpoint: mean survival time, higher = longer survival
Summary of the method: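 In this screen, tumor-bearing mice given compound are compared to those given vehicle, and their survival values are reported as a treated-to-control quotient.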

[1] = dose: 100.0 mg/kg/injection, schedule: Q01DX009 (ip), vehicle: saline with Tween-80
[2] = dose: 100.0 mg/kg/injection, schedule: Q01DX009 (ip), vehicle: saline
[3] = dose: 100.0 mg/kg/injection, schedule: Q04DX003 (ip), vehicle: saline
[4] = dose: 200.0 mg/kg/injection, schedule: Q04DX003 (ip), vehicle: saline
[5] = dose: 400.0 mg/kg/injection, schedule: Q04DX003 (ip), vehicle: saline
[6] = dose: 100.0 mg/kg/injection, schedule: Q01DX001 (ip), vehicle: saline
[7] = dose: 200.0 mg/kg/injection, schedule: Q01DX001 (ip), vehicle: saline
[8] = dose: 400.0 mg/kg/injection, schedule: Q01DX001 (ip), vehicle: saline
[9] = dose: 1.56 mg/kg/injection, schedule: Q01DX009 (ip), vehicle: saline
[10] = dose: 50.0 mg/kg/injection, schedule: Q01DX001 (ip), vehicle: saline
[11] = dose: 50.0 mg/kg/injection, schedule: Q01DX009 (ip), vehicle: saline
[12] = dose: 100.0 mg/kg/injection, schedule: Q04DX003 (ip), vehicle: Klucel (hydroxypropylcellulose) (HPC)
[13] = dose: 100.0 mg/kg/injection, schedule: Q04DX003 (ip), vehicle: saline with Tween-80
[14] = dose: 200.0 mg/kg/injection, schedule: Q04DX003 (ip), vehicle: Klucel (hydroxypropylcellulose) (HPC)
[15] = dose: 200.0 mg/kg/injection, schedule: Q04DX003 (ip), vehicle: saline with Tween-80
[16] = dose: 6.25 mg/kg/injection, schedule: Q01DX009 (ip), vehicle: saline
[17] = dose: 12.5 mg/kg/injection, schedule: Q01DX009 (ip), vehicle: saline
[18] = dose: 400.0 mg/kg/injection, schedule: Q04DX003 (ip), vehicle: Klucel (hydroxypropylcellulose) (HPC)
[19] = dose: 100.0 mg/kg/injection, schedule: Q04DX002 (ip), vehicle: saline with Tween-80
[20] = dose: 200.0 mg/kg/injection, schedule: Q04DX002 (ip), vehicle: saline with Tween-80
[21] = dose: 400.0 mg/kg/injection, schedule: Q04DX002 (ip), vehicle: saline with Tween-80
[22] = dose: 100.0 mg/kg/injection, schedule: Q01DX001 (ip), vehicle: Klucel (hydroxypropylcellulose) (HPC)
[23] = dose: 12.5 mg/kg/injection, schedule: Q04DX003 (ip), vehicle: Klucel (hydroxypropylcellulose) (HPC)
[24] = dose: 25.0 mg/kg/injection, schedule: Q04DX003 (ip), vehicle: Klucel (hydroxypropylcellulose) (HPC)
[25] = dose: 50.0 mg/kg/injection, schedule: Q04DX003 (ip), vehicle: Klucel (hydroxypropylcellulose) (HPC)

Measured: T/C

O=C(COc1ccc(Cl)cc1)Nc1nccs1
inactive: [1] 96 % of control | dose: 200.0 mg/kg/injection, schedule: Q01DX009 (ip), vehicle: saline with Tween-80 89 % of control | dose: 400.0 mg/kg/injection, schedule: Q01DX009 (ip), vehicle: saline with Tween-80 92 % of control

O=C(O)C1C2CCCCC21 (stereo unspecified)
inactive: [2] 97 % of control | [3] 102 % of control | dose: 200.0 mg/kg/injection, schedule: Q01DX009 (ip), vehicle: saline 97 % of control | [4] 103 % of control | dose: 400.0 mg/kg/injection, schedule: Q01DX009 (ip), vehicle: saline 90 % of control | [5] 94 % of control

COP1(=O)OCC(C)O1 (stereo unspecified)
inactive: [6] 113 % of control | [7] 102 % of control | [8] 94 % of control

CC(=O)N[Si](C)(C)C
inactive: [6] 102 % of control | [7] 100 % of control | [8] 98 % of control

CC[CH2][Sn]([Br])([CH2]CC)[CH2]CC
inactive: [9] 95 % of control | dose: 3.12 mg/kg/injection, schedule: Q01DX009 (ip), vehicle: saline 102 % of control

CC(C)=CCNc1ncnc2c1ncn2C1OC(CO)C(O)C1O (stereo unspecified)
inactive: [10] 98 % of control | [11] 118 % of control | dose: 50.0 mg/kg/injection, schedule: Q01DX015 (ip), vehicle: saline 108 % of control | [6] 93 % of control | [2] 110 % of control | [12] 93 % of control | [13] 96 % of control | dose: 150.0 mg/kg/injection, schedule: Q01DX015 (ip), vehicle: saline 113 % of control | [7] 96 % of control | [14] 104 % of control | [15] 102 % of control

CC(=O)OCCC#N
inactive: dose: 50.0 mg/kg/injection, schedule: Q01DX001 (ip), vehicle: carboxymethylcellulose (CMC) 95 % of control | dose: 100.0 mg/kg/injection, schedule: Q01DX001 (ip), vehicle: carboxymethylcellulose (CMC) 95 % of control | dose: 200.0 mg/kg/injection, schedule: Q01DX001 (ip), vehicle: carboxymethylcellulose (CMC) 106 % of control | dose: 400.0 mg/kg/injection, schedule: Q01DX001 (ip), vehicle: carboxymethylcellulose (CMC) 95 % of control

Nc1ccccc1S.[Ag]
inactive: [10] 95 % of control | [6] 86 % of control | [7] 91 % of control | [8] 91 % of control

O=S(=O)(F)c1cc(Cl)ccc1O
inactive: dose: 100.0 mg/kg/injection, schedule: Q04DX002 (ip), vehicle: Klucel (hydroxypropylcellulose) (HPC) 115 % of control | dose: 200.0 mg/kg/injection, schedule: Q04DX002 (ip), vehicle: Klucel (hydroxypropylcellulose) (HPC) 115 % of control | dose: 400.0 mg/kg/injection, schedule: Q04DX002 (ip), vehicle: Klucel (hydroxypropylcellulose) (HPC) 105 % of control

C=C1C(=O)OCC2(C)CCCCC12 (stereo unspecified)
inactive: dose: 10.0 mg/kg/injection, schedule: Q04DX003 (ip), vehicle: saline 101 % of control | dose: 20.0 mg/kg/injection, schedule: Q04DX003 (ip), vehicle: saline 116 % of control

CC1CN1c1nc(N2CC2C)nc(N2CC2C)n1 (stereo unspecified)
inactive: [9] 97 % of control | dose: 3.13 mg/kg/injection, schedule: Q01DX009 (ip), vehicle: saline 95 % of control | dose: 5.0 mg/kg/injection, schedule: Q01DX001 (ip), vehicle: saline 100 % of control | [16] 92 % of control | dose: 10.0 mg/kg/injection, schedule: Q01DX001 (ip), vehicle: saline 109 % of control | [17] 87 % of control | dose: 20.0 mg/kg/injection, schedule: Q01DX001 (ip), vehicle: saline 109 % of control

O=C(O)C(C=C(Cl)Cl)N1CCCCC1 (stereo unspecified)
inactive: [3] 98 % of control | [4] 93 % of control | [5] 94 % of control

CS(=O)(=O)OCC1CCc2[nH]c3ccccc3c2C1 (stereo unspecified)
inactive: [12] 108 % of control | [14] 97 % of control | [18] 97 % of control

CSc1nc(/N=N/Nc2nc(SC)nn2C)n(C)n1
inactive: [19] 93 % of control | [20] 93 % of control | [21] 97 % of control

c1ccc2cc3c(cc2c1)oc1cc2ccccc2cc13
inactive: [12] 120 % of control | [14] 101 % of control | [18] 107 % of control

CC(C)CCn1ccc(=O)[nH]c1=O
inactive: [22] 100 % of control | dose: 200.0 mg/kg/injection, schedule: Q01DX001 (ip), vehicle: Klucel (hydroxypropylcellulose) (HPC) 98 % of control | dose: 400.0 mg/kg/injection, schedule: Q01DX001 (ip), vehicle: Klucel (hydroxypropylcellulose) (HPC) 105 % of control

CC(C)=C1C2C=CC1C1C(=O)OC(=O)C21 (stereo unspecified)
inactive: [23] 107 % of control | dose: 25.0 mg/kg/injection, schedule: Q01DX009 (ip), vehicle: Klucel (hydroxypropylcellulose) (HPC) 98 % of control | [24] 96 % of control | dose: 50.0 mg/kg/injection, schedule: Q01DX009 (ip), vehicle: Klucel (hydroxypropylcellulose) (HPC) 95 % of control | [25] 103 % of control | [22] 94 % of control | [12] 100 % of control

N=C1c2ccccc2-c2nc3ccccc3c(=O)n21
inactive: dose: 100.0 mg/kg/injection, schedule: Q04DX002 (ip), vehicle: saline 86 % of control | dose: 200.0 mg/kg/injection, schedule: Q04DX002 (ip), vehicle: saline 93 % of control | dose: 400.0 mg/kg/injection, schedule: Q04DX002 (ip), vehicle: saline 89 % of control

COc1cc(C(=O)N/N=C/c2ccc(N(C)C)cc2)cc(OC)c1OC
inactive: [13] 102 % of control | [15] 102 % of control | dose: 400.0 mg/kg/injection, schedule: Q04DX003 (ip), vehicle: saline with Tween-80 89 % of control

CC(C)n1cc(C(=O)c2ccccc2)cc1-c1ccccc1
inactive: [19] 93 % of control | [20] 89 % of control | [21] 97 % of control

COC(=O)c1ccccc1N=NN(C)CC(C)C
inactive: dose: 50.0 mg/kg/injection, schedule: Q01DX009 (ip), vehicle: saline with Tween-80 110 % of control | dose: 50.0 mg/kg/injection, schedule: Q04DX003 (ip), vehicle: saline with Tween-80 103 % of control | [1] 121 % of control | [13] 114 % of control

CCN(CC)CCOC(=O)C(c1ccccc1)C1CCCCC1 (stereo unspecified)
inactive: [16] 105 % of control | [17] 95 % of control | dose: 25.0 mg/kg/injection, schedule: Q01DX009 (ip), vehicle: saline 95 % of control | [11] 103 % of control | [2] 103 % of control

CC(=C(C#N)C#N)c1ccc(Cl)cc1
inactive: dose: 12.5 mg/kg/injection, schedule: Q01DX001 (ip), vehicle: Klucel (hydroxypropylcellulose) (HPC) 112 % of control | dose: 25.0 mg/kg/injection, schedule: Q01DX001 (ip), vehicle: Klucel (hydroxypropylcellulose) (HPC) 91 % of control | dose: 50.0 mg/kg/injection, schedule: Q01DX001 (ip), vehicle: Klucel (hydroxypropylcellulose) (HPC) 112 % of control | [12] 108 % of control

CC1=C(N2CC2)C(=O)c2ccccc2C1=O
inactive: [23] 98 % of control | [24] 102 % of control | [25] 102 % of control | [22] 102 % of control | [12] 102 % of control

CC(=O)Nc1cccc(C(=O)O)c1O
inactive: [6] 100 % of control | [7] 105 % of control | [8] 100 % of control

Cc1cc(NCC(O)C(O)C(O)CO)c(C(=O)NN)cc1C (stereo unspecified)
inactive: [6] 101 % of control | [7] 96 % of control | [8] 95 % of control

CCN(CC)C/C=C/C(C)Nc1ccnc2cc(Cl)ccc12 (stereo unspecified)
inactive: dose: 5.0 mg/kg/injection, schedule: Q04DX002 (ip), vehicle: saline with Tween-80 98 % of control | dose: 10.0 mg/kg/injection, schedule: Q04DX002 (ip), vehicle: saline with Tween-80 98 % of control | dose: 20.0 mg/kg/injection, schedule: Q04DX002 (ip), vehicle: saline with Tween-80 94 % of control
